Results reported in patent US10988523B2, “Modified lipidated Relaxin B chain peptides and their therapeutic use” (Sanofi, priority 2018, dated 2021).
*1 amine or outer side, *2 acyl side, *3 side chain or, on linkers, in order; H or OH if unused. Where a SMILES comes first, the peptide text is derived from it. Side-chain parts run from the residue outwards. [ ]: non-standard residue; d: D form. The star is where a group is joined. X13 = CCCCCCCCCCCCCCCC(=O)N[C@@H](CCC(=O)N[C@@H](CCC(=O)N[C@@H](CCC(=O)NCCCC[C@H](NC(=O)COCC(=O)NCCCOCCOCCOCCCN*)C(N)=O)C(=O)O)C(=O)O)C(=O)O; PEG12 = NCCOCCOCCOCCOCCOCCOCCOCCOCCOCCOCCOCCOCCC(=O)O; PEG8 = NCCOCCOCCOCCOCCOCCOCCOCCOCCC(=O)O; γGlu = O=C(O)[C@H](CCC(=O)[*:2])N[*:1]; Stearoyl = CCCCCCCCCCCCCCCCCC(=O)*; Palmitoyl = CCCCCCCCCCCCCCCC(=O)*; Nle = CCCC[C@H](N)C(=O)O; AEEA = NCCOCCOCC(=O)O; Aib = CC(C)(N)C(=O)O

Biological target: T1, RXFP1 (Homo sapiens, UniProt Q9HBX9)
T1 construct: OVCAR5 cells expressing endogenous RXFP1; endogenous in cells; host or cells: OVCAR5 cells
T1 sequence (Q9HBX9 1-757): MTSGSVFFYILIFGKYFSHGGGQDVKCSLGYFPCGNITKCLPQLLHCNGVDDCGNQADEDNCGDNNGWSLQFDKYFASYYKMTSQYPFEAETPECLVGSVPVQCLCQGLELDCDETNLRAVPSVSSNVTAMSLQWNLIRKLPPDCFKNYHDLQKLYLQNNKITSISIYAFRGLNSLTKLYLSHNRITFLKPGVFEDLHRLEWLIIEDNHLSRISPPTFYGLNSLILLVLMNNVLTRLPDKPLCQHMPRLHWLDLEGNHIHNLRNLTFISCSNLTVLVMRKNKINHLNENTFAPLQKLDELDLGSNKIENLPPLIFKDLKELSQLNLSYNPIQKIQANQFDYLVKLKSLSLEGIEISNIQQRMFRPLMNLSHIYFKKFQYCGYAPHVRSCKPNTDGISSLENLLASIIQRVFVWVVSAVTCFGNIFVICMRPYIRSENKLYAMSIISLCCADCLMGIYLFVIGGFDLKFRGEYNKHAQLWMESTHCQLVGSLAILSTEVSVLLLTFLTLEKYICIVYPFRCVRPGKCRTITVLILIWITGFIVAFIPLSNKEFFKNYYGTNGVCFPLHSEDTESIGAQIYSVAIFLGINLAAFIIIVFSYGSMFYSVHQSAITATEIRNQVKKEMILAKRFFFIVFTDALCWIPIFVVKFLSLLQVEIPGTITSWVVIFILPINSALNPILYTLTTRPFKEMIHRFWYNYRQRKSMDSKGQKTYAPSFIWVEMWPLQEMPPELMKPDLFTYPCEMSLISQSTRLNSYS
Experiment: OVCAR5 cAMP assay (HTRF), RXFP1 agonist activity
Format: cell-based
Conditions: for EC50: OVCAR5 cells, cAMP HTRF, read-out: EC50 (nM), OVCAR 5 cells (cAMP); for Emax: OVCAR-5, maximal cAMP relative to H2-relaxin maximum (100%), read-out: EMax, OVCAR 5 cells (cAMP)
Method in brief: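 OVCAR5 cells (endogenous RXFP1) pretreated 40 min at 37° C with 1 mM IBMX, then exposed to peptides in serum-free medium for 30 min at 37° C. Lysate cAMP read by HTRF; EC50 from variable-slope sigmoidal fit; Emax as % of H2-relaxin maximal cAMP in same run.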

Row | EC50 [nM] | Emax [%] | SMILES
1 |  | 93 | CCCCCCCCCCCCCCCCCC(=O)N[C@@H](CCC(=O)NCCCC[C@H](NC(=O)[C@H](CCCCN)NC(=O)[C@H](CCCNC(=N)N)NC(=O)C(C)(C)NC(=O)[C@H](CO)NC(=O)[C@H](Cc1c[nH]c2ccccc12)NC(=O)[C@@H](NC(=O)[C@H](CO)NC(=O)[C@H](CCCC)NC(=O)CNC(=O)[C@H](CCC(=O)O)NC(=O)C(C)(C)NC(=O)C(C)(C)NC(=O)[C@@H](NC(=O)[C@H](CCC(N)=O)NC(=O)[C@H](C)NC(=O)[C@H](CCCNC(=N)N)NC(=O)[C@@H](NC(=O)[C@H](CCCCN)NC(=O)[C@H](CCC(=O)O)NC(=O)[C@H](CCCNC(=N)N)NC(=O)CNC(=O)[C@H](CCC(=O)O)NC(=O)[C@H](CC(C)C)NC(C)=O)C(C)C)[C@@H](C)CC)[C@@H](C)O)C(N)=O)C(=O)O [compound 3] (Ac-LEGREKVRAQI[Aib][Aib]EG[Nle]STWS[Aib]RKK([γGlu-Stearoyl])-NH2)
2 |  | 79 | CCCCCCCCCCCCCCCC(=O)N[C@@H](CCC(=O)N[C@@H](CCC(=O)N[C@@H](CCC(=O)NCCCC[C@H](NC(=O)CCOCCOCCOCCOCCOCCOCCOCCOCCNC(=O)[C@H](CCCCNC(C)=O)NC(=O)[C@H](CCCCN)NC(=O)[C@H](CCCNC(=N)N)NC(=O)C(C)(C)NC(=O)[C@H](CO)NC(=O)[C@H](Cc1c[nH]c2ccccc12)NC(=O)[C@@H](NC(=O)[C@H](CO)NC(=O)[C@H](CCCC)NC(=O)CNC(=O)[C@H](CCC(=O)O)NC(=O)C(C)(C)NC(=O)C(C)(C)NC(=O)[C@@H](NC(=O)[C@H](CCCCNC(C)=O)NC(=O)[C@H](C)NC(=O)[C@H](CCCNC(=N)N)NC(=O)[C@@H](NC(=O)[C@H](CCCCN)NC(=O)[C@H](CCC(=O)O)NC(=O)[C@H](CCCNC(=N)N)NC(=O)CNC(=O)[C@H](CCC(=O)O)NC(=O)[C@H](CC(C)C)NC(C)=O)C(C)C)[C@@H](C)CC)[C@@H](C)O)C(N)=O)C(=O)O)C(=O)O)C(=O)O [compound 181] (Ac-LEGREKVRAK(Ac)I[Aib][Aib]EG[Nle]STWS[Aib]RKK(Ac)[PEG8]K([γGlu-γGlu-γGlu-Palmitoyl])-NH2)
3 |  | 88 | CCCCCCCCCCCCCCCCCC(=O)NCCCC[C@H](NC(=O)CCOCCOCCOCCOCCOCCOCCOCCOCCOCCOCCOCCOCCNC(=O)[C@H](CCCCNC(C)=O)NC(=O)[C@H](CCCCN)NC(=O)[C@H](CCCNC(=N)N)NC(=O)C(C)(C)NC(=O)[C@H](CO)NC(=O)[C@H](Cc1c[nH]c2ccccc12)NC(=O)[C@@H](NC(=O)[C@H](CO)NC(=O)[C@H](CCCC)NC(=O)CNC(=O)[C@H](CCC(=O)O)NC(=O)C(C)(C)NC(=O)C(C)(C)NC(=O)[C@@H](NC(=O)[C@H](CCC(N)=O)NC(=O)[C@H](C)NC(=O)[C@H](CCCNC(=N)N)NC(=O)[C@@H](NC(=O)[C@H](CCCCN)NC(=O)[C@H](CCC(=O)O)NC(=O)[C@H](CCCNC(=N)N)NC(=O)CNC(=O)[C@H](CCC(=O)O)NC(=O)[C@H](CC(C)C)NC(C)=O)C(C)C)[C@@H](C)CC)[C@@H](C)O)C(N)=O [compound 21] (Ac-LEGREKVRAQI[Aib][Aib]EG[Nle]STWS[Aib]RKK(Ac)[PEG12]K(Stearoyl)-NH2)

Continued, compound first:

Row | SMILES | EC50 [nM] | Emax [%]
4 | CCCCCCCCCCCCCCCCCC(=O)N[C@@H](CCC(=O)NCCOCCOCC(=O)NCCOCCOCC(=O)N[C@@H](CCC(=O)N[C@@H](CCC(=O)NCCCC[C@H](NC(=O)[C@H](CCCCN)NC(=O)[C@H](CCCCN)NC(=O)[C@H](CCCNC(=N)N)NC(=O)C(C)(C)NC(=O)[C@H](CO)NC(=O)[C@H](Cc1c[nH]c2ccccc12)NC(=O)[C@@H](NC(=O)[C@H](CO)NC(=O)[C@H](CCCC)NC(=O)CNC(=O)[C@H](CCC(=O)O)NC(=O)C(C)(C)NC(=O)C(C)(C)NC(=O)[C@@H](NC(=O)[C@H](CCC(N)=O)NC(=O)[C@H](C)NC(=O)[C@H](CCCNC(=N)N)NC(=O)[C@@H](NC(=O)[C@H](CCCCN)NC(=O)[C@H](CCC(=O)O)NC(=O)[C@H](CCCNC(=N)N)NC(=O)CNC(=O)[C@H](CCC(=O)O)NC(=O)[C@H](CC(C)C)NC(C)=O)C(C)C)[C@@H](C)CC)[C@@H](C)O)C(N)=O)C(=O)O)C(=O)O)C(=O)O [compound 105] (Ac-LEGREKVRAQI[Aib][Aib]EG[Nle]STWS[Aib]RKKK([γGlu-γGlu-AEEA-AEEA-γGlu-Stearoyl])-NH2) | 0.03 | 88
5 | CCCCCCCCCCCCCCCC(=O)N[C@@H](CCC(=O)NCCCC[C@H](NC(=O)CC[C@H](NC(=O)CC[C@H](NC(=O)COCCOCCNC(=O)COCCOCCNC(=O)COCCOCCNC(=O)COCCOCCNC(=O)[C@H](CCCCNC(C)=O)NC(=O)[C@H](CCCCN)NC(=O)[C@H](CCCNC(=N)N)NC(=O)C(C)(C)NC(=O)[C@H](CO)NC(=O)[C@H](Cc1c[nH]c2ccccc12)NC(=O)[C@@H](NC(=O)[C@H](CO)NC(=O)[C@H](CCCC)NC(=O)CNC(=O)[C@H](CCC(=O)O)NC(=O)C(C)(C)NC(=O)C(C)(C)NC(=O)[C@@H](NC(=O)[C@H](CCCCNC(C)=O)NC(=O)[C@H](C)NC(=O)[C@H](CCCNC(=N)N)NC(=O)[C@@H](NC(=O)[C@H](CCCCN)NC(=O)[C@H](CCC(=O)O)NC(=O)[C@H](CCCNC(=N)N)NC(=O)CNC(=O)[C@H](CCC(=O)O)NC(=O)[C@H](CC(C)C)NC(C)=O)C(C)C)[C@@H](C)CC)[C@@H](C)O)C(=O)O)C(=O)O)C(N)=O)C(=O)O [compound 116] (Ac-LEGREKVRAK(Ac)I[Aib][Aib]EG[Nle]STWS[Aib]RKK(Ac)[AEEA][AEEA][AEEA][AEEA][γGlu][γGlu]K([γGlu-Palmitoyl])-NH2) | 1 | 89
6 | CCCCCCCCCCCCCCCCCC(=O)N[C@@H](CCC(=O)N[C@@H](CCC(=O)N[C@@H](CCC(=O)NCCOCCOCC(=O)NCCOCCOCC(=O)NCCCC[C@H](NC(=O)[C@H](CCCCN)NC(=O)[C@H](CCCCN)NC(=O)[C@H](CCCNC(=N)N)NC(=O)C(C)(C)NC(=O)[C@H](CO)NC(=O)[C@H](Cc1c[nH]c2ccccc12)NC(=O)[C@@H](NC(=O)[C@H](CO)NC(=O)[C@H](CCC(=O)O)NC(=O)CNC(=O)[C@H](CCC(=O)O)NC(=O)C(C)(C)NC(=O)C(C)(C)NC(=O)[C@@H](NC(=O)[C@H](CCC(N)=O)NC(=O)[C@H](C)NC(=O)[C@H](CCCNC(=N)N)NC(=O)[C@@H](NC(=O)[C@H](CCCCN)NC(=O)[C@H](CCC(=O)O)NC(=O)[C@H](CCCNC(=N)N)NC(=O)CNC(=O)[C@H](CCC(=O)O)NC(=O)[C@H](CC(C)C)NC(C)=O)C(C)C)[C@@H](C)CC)[C@@H](C)O)C(N)=O)C(=O)O)C(=O)O)C(=O)O [compound 68] (Ac-LEGREKVRAQI[Aib][Aib]EGESTWS[Aib]RKKK([AEEA-AEEA-γGlu-γGlu-γGlu-Stearoyl])-NH2) |  | 94
7 | CCCCCCCCCCCCCCCC(=O)N[C@@H](CCC(=O)N[C@@H](CCC(=O)N[C@@H](CCC(=O)NCCCC[C@H](NC(=O)COCC(=O)NCCCOCCOCCOCCCNC(=O)[C@H](CCCCNC(C)=O)NC(=O)[C@H](CCCCN)NC(=O)[C@H](CCCNC(=N)N)NC(=O)C(C)(C)NC(=O)[C@H](CO)NC(=O)[C@H](Cc1c[nH]c2ccccc12)NC(=O)[C@@H](NC(=O)[C@H](CO)NC(=O)[C@H](CCC(N)=O)NC(=O)CNC(=O)[C@H](CCC(=O)O)NC(=O)C(C)(C)NC(=O)C(C)(C)NC(=O)[C@@H](NC(=O)[C@H](CCCCNC(C)=O)NC(=O)[C@H](C)NC(=O)[C@H](CCCNC(=N)N)NC(=O)[C@@H](NC(=O)[C@H](CCCCN)NC(=O)[C@H](CCC(=O)O)NC(=O)[C@H](CCCNC(=N)N)NC(=O)CNC(=O)[C@H](CCC(=O)O)NC(=O)[C@H](CC(C)C)NC(C)=O)C(C)C)[C@@H](C)CC)[C@@H](C)O)C(N)=O)C(=O)O)C(=O)O)C(=O)O [compound 176] (Ac-LEGREKVRAK(Ac)I[Aib][Aib]EGQSTWS[Aib]RKK(Ac)-X13) |  | 90
8 | CCCCCCCCCCCCCCCC(=O)N[C@@H](CCC(=O)N[C@@H](CCC(=O)N[C@@H](CCC(=O)NCCOCCOCC(=O)NCCOCCOCC(=O)NCCCC[C@H](NC(=O)[C@H](CCCCN)NC(=O)[C@H](CCCCN)NC(=O)[C@H](CCCNC(=N)N)NC(=O)C(C)(C)NC(=O)[C@H](CO)NC(=O)[C@H](Cc1c[nH]c2ccccc12)NC(=O)[C@@H](NC(=O)[C@H](CO)NC(=O)[C@H](CCCC)NC(=O)CNC(=O)[C@H](CCC(=O)O)NC(=O)C(C)(C)NC(=O)C(C)(C)NC(=O)[C@@H](NC(=O)[C@H](CCCCNC(C)=O)NC(=O)[C@H](C)NC(=O)[C@H](CCCNC(=N)N)NC(=O)[C@@H](NC(=O)[C@H](CCCCN)NC(=O)[C@H](CCC(=O)O)NC(=O)[C@H](CCCNC(=N)N)NC(=O)CNC(=O)[C@H](CCC(=O)O)NC(=O)[C@H](CC(C)C)NC(C)=O)C(C)C)[C@@H](C)CC)[C@@H](C)O)C(N)=O)C(=O)O)C(=O)O)C(=O)O [compound 60] (Ac-LEGREKVRAK(Ac)I[Aib][Aib]EG[Nle]STWS[Aib]RKKK([AEEA-AEEA-γGlu-γGlu-γGlu-Palmitoyl])-NH2) | 0.11 | 91
